Where two headings read alike, the source gives them in different places.
Tests used:
Human MAO-A = target: T1, Human MAO-A (Homo sapiens, UniProt P21397); assay: hMAO-A inhibition assay; assay type: biochemical; conditions: for inhibition at 10 µM: read-out: hMAO-A inhibitory rate at 10 μM, 10 μM (highest concentration tested)
T1 construct: purchased Sigma-Aldrich
T1 sequence (P21397 1-527): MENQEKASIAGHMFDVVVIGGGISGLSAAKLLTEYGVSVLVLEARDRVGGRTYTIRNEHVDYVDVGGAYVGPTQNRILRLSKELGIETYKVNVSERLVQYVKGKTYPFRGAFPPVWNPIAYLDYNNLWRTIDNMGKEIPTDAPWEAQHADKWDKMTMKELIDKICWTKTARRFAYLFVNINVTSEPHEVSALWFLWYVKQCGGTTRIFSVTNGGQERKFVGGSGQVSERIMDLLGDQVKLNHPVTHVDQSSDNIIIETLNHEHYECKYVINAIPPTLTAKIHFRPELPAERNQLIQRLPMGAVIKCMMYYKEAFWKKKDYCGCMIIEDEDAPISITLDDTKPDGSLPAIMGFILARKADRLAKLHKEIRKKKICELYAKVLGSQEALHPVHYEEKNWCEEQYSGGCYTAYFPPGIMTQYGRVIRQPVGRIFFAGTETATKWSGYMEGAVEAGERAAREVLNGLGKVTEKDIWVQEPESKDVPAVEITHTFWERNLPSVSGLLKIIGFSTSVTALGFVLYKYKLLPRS
Procedure: Further, the inhibitory activity of compounds against hMAO-A isoform was tested and calculated as a selectivity index [Selectivity index (SI): IC50 (hMAO-A)/IC50 (hMAO-B)].
(§1) The reagents and enzymes (Human MAO-B and Human MAO-A) applied in this experiment were purchased from Sigma-Aldrich. According to the manuals, all components (substrate solution and enzyme solution) are diluted and placed aside for use. The detailed process has been mentioned in our early work[34].

[1] = iron (III) affinity constants and pFe3+ by spectrophotometric titration; assay type: physicochemical; conditions: for Log β1 / Log β2 / Log β3: DMSO: KCl (0.1 M) = 1:1.5 (v/v); for pFe^3+: calculated from Log β values obtained in DMSO: KCl (0.1 M) = 1:1.5 (v/v)
MAO-B = target: T2, MAO-B (Homo sapiens, UniProt P27338); assay: hMAO-B inhibition assay; assay type: biochemical; conditions: for inhibition at 0.1 µM: read-out: Inhibitory rate (%, 100 nM)
T2 construct: purchased Sigma-Aldrich
T2 sequence (P27338 1-520): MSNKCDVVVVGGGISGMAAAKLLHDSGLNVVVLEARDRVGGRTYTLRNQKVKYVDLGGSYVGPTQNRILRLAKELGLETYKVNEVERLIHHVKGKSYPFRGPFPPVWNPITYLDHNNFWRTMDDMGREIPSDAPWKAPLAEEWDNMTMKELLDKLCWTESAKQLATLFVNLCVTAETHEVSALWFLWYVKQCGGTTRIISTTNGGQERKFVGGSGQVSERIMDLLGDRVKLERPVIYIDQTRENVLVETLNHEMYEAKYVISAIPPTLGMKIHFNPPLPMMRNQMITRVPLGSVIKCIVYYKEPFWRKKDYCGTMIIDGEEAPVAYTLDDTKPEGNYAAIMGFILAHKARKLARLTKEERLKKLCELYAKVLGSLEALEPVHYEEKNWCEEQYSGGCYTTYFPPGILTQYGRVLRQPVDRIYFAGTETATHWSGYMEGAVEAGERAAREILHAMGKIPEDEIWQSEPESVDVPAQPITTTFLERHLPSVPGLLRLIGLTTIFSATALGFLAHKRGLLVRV
Procedure: as §1

[2] = pKa determination by automated spectrophotometric titration; assay type: physicochemical; conditions: 0.1 M KCl solution
PAMPA-BBB assay = assay type: in vitro ADME; conditions: PAMPA-BBB, mean ± SEM of eight independent experiments
Description: Good blood–brain barrier (BBB) permeability is the key to exerting drug efficacy in the treatment of central nervous system diseases. To evaluate whether the target compound could penetrate BBB, a parallel artificial membrane permeability assay (PAMPA) was used to predict[32]^,[33]. […] Therefore, due to its potential ability to cross the BBB, compound 17d was selected for subsequent assay.
PAMPA was used to predict the BBB permeability of the screened compound. The detailed process has been mentioned in our early work[32]^,[33].

[3] = test system: scopolamine-induced cognitive impairment mice model; assay: Morris water maze test, scopolamine-induced memory impairment; assay type: in vivo, ICR mice; parameters: Distance to first entry: unit not given here; conditions: 15 mg/kg, scopolamine 15 mg/kg, ICR mice, mean ± SEM, n = 15; for Latency to first entry: in s (unit assumed)
Description: To further explore the in vivo anti-AD effect of compound 17d on the scopolamine-induced cognitive impairment mice model, the Morris Water Maze experiment was selected; data are shown in Figure 7 and Table 5.
Figure 7.
Adult female ICR mice (weight 20–25 g) were obtained from the Zhejiang Academy of Medical Sciences (Hangzhou, China). Scopolamine hydrobromide and Pargyline were purchased from Aladdin Reagents. Memantine was purchased from Energy Chemical. All experiments were approved by the Laboratory Animals Ethical Committee of the Zhejiang University of Technology (No. 20211210103). In this test, mice were prepared as clarified and clear injections, consisting of 20% (2-Hydroxypropyl)-β-cyclodextrin, 10% DMSO, and PBS. […] Mice were administered at a frequency of once a day over 15 d with a fixed dosing schedule. The body weight of mice was measured during the experiment.
After eliminating environmental stress, the behavioural test was performed over the next five days. The mice were trained to find the platform (10 cm diameter) in the circular light-avoidance pool (120 cm diameter and 60 cm height) filled with water (40 cm, depth), which was described in detail in our previous study. All mice received at least one training session daily in four quadrants for four consecutive days before the probe trial of finding the platform within 120 s. Recordings were made with SMART version 3.0 (Panlab, Spain) and processed by Graphpad Prism version 6 software (Graphpad Software Inc., La Jolla, CA, USA).

| Compound | IC50 (Human MAO-A) [nM] | Log β1 [1] | Log β2 [1] | Log β3 [1] | pFe^3+ [1] | melting point [°C] | IC50 (MAO-B) [nM] | SI: hMAO-B selectivity index = IC50 (hMAO-A)/IC50 (hMAO-B) (MAO-B) | inhibition at 0.1 µM (MAO-B; hMAO-B, 100 nM) [%] | pKa ([2]; read-out: pKa1) | pKa ([2]; read-out: pKa2) | inhibition at 10 µM (Human MAO-A) [%] | other results |
| --- | --- | --- | --- | --- | --- | --- | --- | --- | --- | --- | --- | --- | --- |
| Cc1c(O)c(=O)ccn1CCNCc1coc2ccccc2c1=O [Compound 17a, 3-Hydroxy-2-methyl-1–(2-(((4-oxo-4H-chromen-3-yl)methyl)amino)ethyl)pyridin-4(1H)-one] | 2060 ± 35.4 | 13.46 | 25.19 | 35.28 | 18.62 | 248 to 250 | 67.3 ± 1.9 | 30.7 | 53.1 ± 1.6 | 2.81 | 9.8 |  | Pe ± SEM (PAMPA-BBB assay): 1.22 ± 0.22 *10^−6 cm/s; Papp (PAMPA-BBB assay; read-out: Pe ± SEM): 1.22 ± 0.22 ×10⁻⁶ cm/s |
| Cc1ccc2c(=O)c(CNCCn3ccc(=O)c(O)c3C)coc2c1 [Compound 17b, 3-Hydroxy-2-methyl-1–(2-(((7-methyl-4-oxo-4H-chromen-3-yl)methyl)amino)ethyl)pyridin-4(1H)-one] |  | 13.58 | 25.38 | 35.34 | 18.61 | 251 to 253 | 82.78 ± 0.7 | >120 | 49.5 ± 0.3 | 2.95 | 9.82 | < 20 |  |
| Cc1ccc2occ(CNCCn3ccc(=O)c(O)c3C)c(=O)c2c1 [Compound 17c, 3-Hydroxy-2-methyl-1–(2-(((6-methyl-4-oxo-4H-chromen-3-yl)methyl)amino)ethyl)pyridin-4(1H)-one] |  | 13.31 | 25.00 | 34.07 | 17.55 | 259 to 261 | 86.3 ± 0.7 | >116 | 44.23 ± 0.1 | 2.75 | 9.76 | < 20 |  |
| COc1ccc2occ(CNCCn3ccc(=O)c(O)c3C)c(=O)c2c1 [Compound 17e, 3-Hydroxy-1–(2-(((6-methoxy-4-oxo-4H-chromen-3-yl)methyl)amino)ethyl)-2-methylpyridin-4(1H)-one] |  | 13.32 | 25.08 | 34.89 | 18.12 | 267 to 269 | 88.7 ± 5.3 | >112 | 46.4 ± 1.3 | 2.76 | 9.83 | < 20 |  |
| Cc1c(O)c(=O)ccn1CCNCc1coc2cc(OCc3ccccc3)ccc2c1=O [Compound 17f, 1–(2-(((7-(Benzyloxy)-4-oxo-4H-chromen-3-yl)methyl)amino)ethyl)-3-hydroxy-2-methylpyridin-4(1H)-one] | 795 ± 0.7 | 13.20 | 24.70 | 33.77 | 17.45 | 169 to 171 | 76.4 ± 3.8 | 10.4 | 49 ± 0.6 | 2.73 | 9.69 |  |  |
| Cc1cccc(COc2ccc3c(=O)c(CNCCn4ccc(=O)c(O)c4C)coc3c2)c1 [Compound 17g, 3-Hydroxy-2-methyl-1–(2-(((7-((3-methylbenzyl)oxy)-4-oxo-4H-chromen-3-yl)methyl)amino)ethyl)pyridin-4(1H)-one] | 1666 ± 5.7 | 13.02 | 24.75 | 33.78 | 17.66 | 211 to 213 | 78 ± 4.3 | 21.4 | 55.8 ± 2.7 | 2.68 | 9.62 |  |  |
| Cc1c(O)c(=O)ccn1CCNCc1coc2cc(OCc3ccc(F)cc3)ccc2c1=O [Compound 17j, 1–(2-(((7-((4-Fluorobenzyl)oxy)-4-oxo-4H-chromen-3-yl)methyl)amino)ethyl)-3-hydroxy-2-methylpyridin-4(1H)-one] |  | 13.13 | 24.78 | 33.73 | 17.89 | 218 to 220 | 102 ± 3.2 | >99 | 46 ± 0.7 | 2.76 | 9.53 | < 20 |  |
| Cc1c(O)c(=O)ccn1CCNCc1coc2cc(OCc3cccc(Cl)c3)ccc2c1=O [Compound 17k, 1–(2-(((7-((3-Chlorobenzyl)oxy)-4-oxo-4H-chromen-3-yl)methyl)amino)ethyl)-3-hydroxy-2-methylpyridin-4(1H)-one] |  | 12.99 | 24.76 | 33.88 | 18.31 | 226 to 228 | 114 ± 3.8 | >88 | 43.1 ± 2 | 2.53 | 9.43 | < 20 |  |
| Cc1c(O)c(=O)ccn1CCNCc1coc2cc(OCc3ccc(Cl)cc3)ccc2c1=O [Compound 17l, 1–(2-(((7-((4-Chlorobenzyl)oxy)-4-oxo-4H-chromen-3-yl)methyl)amino)ethyl)-3-hydroxy-2-methylpyridin-4(1H)-one] | 1310 ± 13.4 | 13.02 | 24.99 | 34.39 | 18.70 | 189 to 191 | 75.6 ± 3.1 | 17.4 | 61.4 ± 3.4 | 2.61 | 9.47 |  |  |
| CC12CC3CC(C)(C1)CC(N)(C3)C2 [Memantine] |  |  |  |  |  |  |  |  |  |  |  |  | Entries to target [3]: 4.0 ± 0.3; Latency to first entry [3]: 13 ± 1; Entries to target ([3]; listed as memantine): 4.0 ± 0.3; Latency to first entry ([3]; listed as memantine): 13 ± 1 |
| C#CCN(C)Cc1ccccc1 [Pargyline] |  |  |  |  |  |  |  |  |  |  |  |  | Distance to first entry [3]: 2.6 ± 0.3; Entries to target [3]: 5.3 ± 0.9; Latency to first entry [3]: 11 ± 1; Distance to first entry ([3]; listed as pargyline): 2.6 ± 0.3; Entries to target ([3]; listed as pargyline): 5.3 ± 0.9; Latency to first entry ([3]; listed as pargyline): 11 ± 1; inhibition at 0.1 µM (MAO-B): 48.9 ± 1.7% |

Source: paper PMC9762789, “Chromone-based monoamine oxidase B inhibitor with potential iron-chelating activity for the treatment of Alzheimer’s disease” (Journal of Enzyme Inhibition and Medicinal Chemistry, 2022)
